Values joined by “and” are separate entries in the source; they are usually repeats but may differ in a detail not shown here. Equal entries are not always repeated. Toxic doses and inconclusive results are not listed. The calls were made as follows: active = survival T/C of 150% or more; inactive = T/C below 125% in these data.
Test system: CD2F1 mice, L1210 leukemia ip, survival T/C
Assay: NCI In Vivo Anticancer Drug Screen. Data for tumor model L1210 Leukemia (intraperitoneal) in CD2F1 (CDF1) mice
Conditions: endpoint: mean survival time, higher = longer survival
Procedure, shortened: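 Compound-dosed mice with transplantable tumor versus matched vehicle controls; endpoint ratio T/C reported.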

[1] = dose: 100.0 mg/kg/injection, schedule: Q01DX009 (ip), vehicle: saline with Tween-80
[2] = dose: 200.0 mg/kg/injection, schedule: Q01DX009 (ip), vehicle: saline with Tween-80
[3] = dose: 75.0 mg/kg/injection, schedule: Q04DX003 (ip), vehicle: saline
[4] = dose: 150.0 mg/kg/injection, schedule: Q04DX003 (ip), vehicle: saline
[5] = dose: 300.0 mg/kg/injection, schedule: Q04DX003 (ip), vehicle: saline
[6] = dose: 100.0 mg/kg/injection, schedule: Q04DX003 (ip), vehicle: saline with Tween-80
[7] = dose: 200.0 mg/kg/injection, schedule: Q04DX003 (ip), vehicle: saline with Tween-80
[8] = dose: 50.0 mg/kg/injection, schedule: Q04DX002 (ip), vehicle: saline with Tween-80
[9] = dose: 100.0 mg/kg/injection, schedule: Q04DX002 (ip), vehicle: saline with Tween-80
[10] = dose: 200.0 mg/kg/injection, schedule: Q04DX002 (ip), vehicle: saline with Tween-80

Measured: T/C

Fc1ccc(NC(=S)SCc2ccc(Cl)c(Cl)c2)cc1F
inactive: dose: 12.5 mg/kg/injection, schedule: Q01DX009 (ip), vehicle: saline 98 % of control | dose: 12.5 mg/kg/injection, schedule: Q01DX009 (ip), vehicle: suspension in saline 98 % of control | dose: 25.0 mg/kg/injection, schedule: Q01DX009 (ip), vehicle: saline 101 % of control | dose: 25.0 mg/kg/injection, schedule: Q01DX009 (ip), vehicle: suspension in saline 108 % of control | dose: 50.0 mg/kg/injection, schedule: Q01DX009 (ip), vehicle: Klucel (hydroxypropylcellulose) (HPC) 112 % of control | dose: 50.0 mg/kg/injection, schedule: Q01DX009 (ip), vehicle: saline 98 % of control | dose: 50.0 mg/kg/injection, schedule: Q01DX009 (ip), vehicle: suspension in saline 103 % of control | dose: 100.0 mg/kg/injection, schedule: Q01DX009 (ip), vehicle: Klucel (hydroxypropylcellulose) (HPC) 107 % of control | dose: 100.0 mg/kg/injection, schedule: Q01DX009 (ip), vehicle: saline 95 % of control | dose: 100.0 mg/kg/injection, schedule: Q01DX009 (ip), vehicle: suspension in saline 104 % of control | dose: 200.0 mg/kg/injection, schedule: Q01DX009 (ip), vehicle: Klucel (hydroxypropylcellulose) (HPC) 91 % of control

COc1ccc(-c2cnc(C(N)=O)c(=O)[nH]2)cc1
inactive: [1] 100 % of control | [2] 96 % of control | dose: 400.0 mg/kg/injection, schedule: Q01DX009 (ip), vehicle: saline with Tween-80 101 % of control

C#CCCCCCC#[C][Hg][C]#CCCCCCC#C.C#CCCCCCC#[C][Hg][C]#CCCCCCC#C
inactive: [3] 91 % of control | dose: 150.0 mg/kg/injection, schedule: Q01DX009 (ip), vehicle: saline 91 % of control | [4] 94 % of control | [5] 94 % of control

CC(C)(C)OC(=O)CCC(NC(=O)OC(C)(C)C)C(=O)O (stereo not drawn)
inactive: [6] 98 % of control | [7] 93 % of control | dose: 400.0 mg/kg/injection, schedule: Q04DX003 (ip), vehicle: saline with Tween-80 95 % of control

Nc1nc(N2CCCCC2)c2ncn(C3OC(CO)C(O)C3O)c2n1 (stereo not drawn)
inactive: dose: 12.5 mg/kg/injection, schedule: Q01DX005 (ip), vehicle: water 106 % of control | dose: 25.0 mg/kg/injection, schedule: Q01DX005 (ip), vehicle: water 101 % of control | dose: 50.0 mg/kg/injection, schedule: Q01DX005 (ip), vehicle: water 112 % of control | dose: 100.0 mg/kg/injection, schedule: Q01DX005 (ip), vehicle: water 96 % of control | dose: 200.0 mg/kg/injection, schedule: Q01DX005 (ip), vehicle: water 108 % of control

OCC1C2C=CC(c3ccccc32)C1CO (stereo not drawn)
inactive: [8] 106 % of control | [9] 88 % of control | [10] 95 % of control

O=c1c2cccc3cccc(c32)c2cc(-c3ccccc3)nn12
inactive: dose: 25.0 mg/kg/injection, schedule: Q04DX002 (ip), vehicle: saline with Tween-80 100 % of control | [8] 92 % of control | [9] 96 % of control | [10] 103 % of control

Cc1ccc(S(=O)(=O)OC2CC3CC2C2C4C=CC(C4)C32)cc1 (stereo not drawn)
inactive: dose: 50.0 mg/kg/injection, schedule: Q01DX009 (ip), vehicle: saline with Tween-80 101 % of control | [1] 93 % of control | [2] 101 % of control

CC(CC(=O)O)C(NC(=O)OCc1ccccc1)C(=O)O (stereo not drawn)
inactive: [3] 101 % of control | [4] 95 % of control | [5] 95 % of control

[N-]=[N+]=Nc1ccccc1C(=O)NCc1cnc(N)nc1N
inactive: [6] 95 % of control | [7] 95 % of control

C(#Cc1ccccc1)/C=C/C=C/c1ccccc1
inactive: dose: 25.0 mg/kg/injection, schedule: Q01DX001 (ip), vehicle: saline with Tween-80 95 % of control | dose: 50.0 mg/kg/injection, schedule: Q01DX001 (ip), vehicle: saline with Tween-80 87 % of control | dose: 100.0 mg/kg/injection, schedule: Q01DX001 (ip), vehicle: saline with Tween-80 87 % of control and 89 % of control

CN(C)S(=O)(=O)Oc1cccc(N)c1
inactive: [6] 92 % of control | [7] 87 % of control

Cc1c2ccccc2c(CSCCC(N)C(=O)O)c2ccc3ccccc3c12 (stereo not drawn)
inactive: [6] 96 % of control | [7] 87 % of control

— PubChem BioAssay AID256 (DTP/NCI, 2004)
